Source: US11932622B1, “2-(1-(2-hydroxypropyl)-4,5-diphenyl-1H-imidazol-2-yl)pyridine as an anticancer compound” (KING FAISAL UNIVERSITY, priority 2023, dated 2024)

Legend:
[1] = tested on: human prostate cancer cells (PC3); assay: Assessment of cytotoxicity by SRB assay (PC3); assay type: cell-based; details: 0.01 μM to 100 μM, 72 h
Description: (§1) The human prostate cancer cells (PC3) and human osteosarcoma cells (MG-63) were obtained from Nawah Scientific Inc. (Mokatam, Cairo, Egypt) and cultured in DMEM (Dulbecco's modified eagle's medium), Gibco, USA, supplemented with fetal bovine serum (FBS) at a concentration of 10% and 100 U/mL of penicillin and streptomycin (PS). The Cells were incubated at 37° C. in a humidified environment that contained 5% C02.
(§2) Cells were seeded in 96-well plates as aliquots of 100 μL cell suspension and incubated in a complete media for 24 h. Afterward, cells were treated with 2-(1-(2-hydroxypropyl)-4,5-diphenyl-1H-imidazol-2-yl)pyridine at diverse concentrations ranging from 0.01 μM to 100 μM for 72 h. Then, cells were fixed at 4° C. for one hour with 150 μL of 10% trichloroacetic acid (TCA). After washing the cells five times with distilled water, 70 μL of sulforhodamine (SRB) solution (0.4% w/v) was added and incubated for 10 min at room temperature in a dark place. […] Then, 150 μL of Tris pH 10.5 (10 mM) was added, and the absorbance was measured at 540 nm using a BMG LABTECH®-FLUOstar Omega microplate reader (Ortenberg, Germany). Half maximal inhibitory concentrations (IC50) values were calculated for each experiment using GraphPad Prism 6 software. […]
(§3) The inhibition was calculated using the following equation: Inhibition %=100−Average Viability

[2] = tested on: human osteosarcoma cells (MG-63); assay: Assessment of cytotoxicity by SRB assay (MG-63); assay type: cell-based; details: 0.01 μM to 100 μM, 72 h
Description: as §1, §2, §3

- melting point: 112 to 114 °C
Compound: CC(O)Cn1c(-c2ccccn2)nc(-c2ccccc2)c1-c1ccccc1 (stereo not drawn) [2-(1-(2-hydroxypropyl)-4,5-diphenyl-1H-imidazol-2-yl)pyridine]
- antiproliferative activity against prostate cancer cells (PC3) [1]: excellent antiproliferative activities
- antiproliferative activity against osteosarcoma (MG-63) cells [2]: excellent antiproliferative activities
